Bridges are numbered along the chain shown (N, C = ends). Where no end group is shown, it is not given here.
How the values were obtained:
mouse osteoblasts = test: ALP activity determination in mouse osteoblasts; type: cell-based; details: 300 μM; differentiation medium; Day 7
Procedure: Seven days after differentiation, the culture supernatant was removed from each plate and the cells were fixed with an acetone/ethanol solution. The ALP activity was determined using p-nitrophenyl phosphate as a substrate. Specifically, a carbonate buffer (5 mM MgCl2, 50 mM NaHCO3) containing p-nitrophenyl phosphate (Nacalai) (1 mg/mL) was added to each well (100 μL/well), followed by incubation at 37° C. Then, the OD value at 405 nm was determined with the use of a microplate reader (BMG Labtech) for each well.
For experiments, a goat polyclonal mRANKL antibody (R&D, Saint Cruz), monoclonal mRANKL antibodies ((A): clone 88227 (R&D); (B): clone 12A668) (ALEXIS), and synthetic peptide D were used. As negative controls, goat IgG (ZYMED) and a control peptide were used. Synthetic peptide D and the control peptide used were the same as those used in Example 1. […] ALP activity determination was carried out as in Example 1.
Newborn mouse calvarias were immersed in an enzyme solution (0.1% collagenase (Wako)+0.2% Dispase (GODO SHUSEI CO., LTD.)), followed by shaking in a thermostatic bath at 37° C. for 5 minutes. The initial floating cell fraction was removed therefrom and a new enzyme solution (10 mL) was added thereto, followed by another instance of shaking in a thermostatic bath at 37° C. for 10 minutes. The above operations were repeated 4 times. […]

[1] = tested on: human alkaline phosphatase (hALP) and human type I collagen (hCollagen I); test: RT-PCR analysis of hALP and hCollagen I in human mesenchymal stem cells; type: cell-based
Procedure: Human mesenchymal stem cells (3×10^4 cells) were seeded on a 6-well plate, followed by culture for 7 days in the presence of an osteoblast differentiation medium (Lonza) or a maintenance medium (Lonza). Peptide D (100 μM and 300 μM) was added to each well. Further, a peptide solvent was added to a control group. After culture, the cells were washed with PBS and dissolved in QIAzol Lysis Reagent (QIAGEN) (0.75 mL). Then, the solution was collected. The solution was left at room temperature for 5 minutes. Then, chloroform (Wako) (0.15 mL) was added, the resultant was admixed by turning upside down, and then the resultant was centrifuged under conditions of 4° C. and 12000×g for 15 minutes. The supernatant was collected in a new tube. RNA was isolated from the supernatant with the use of an EZ1 RNA universal tissue kit (QIAGEN) and Magtration System 12GC (QIAGEN). After determination of the RNA concentration, each RNA (250 ng) was subjected to electrophoresis with 1% agarose gel for confirmation of the occurrence or nonoccurrence of RNA degradation. Non-degraded RNAs (500 ng each) were subjected to RT-PCR. RT-PCR was performed using a ThermoScript RT-PCR System (Invitrogen) and random primers. […]
Samples obtained after the PCR reaction were subjected to electrophoresis with 1% agarose gel. […] The obtained images were analyzed with a CSAnalyzer. […]

## peptide D: cyclic peptide of SEQ ID NO: 7, 9 amino acids, two cysteine residues bound via a disulfide bond; binds to RANKL (YCWSQYLCY; disulfide 2-8 (inferred))
Mouse osteoblasts
  ALP activation: caused an increase in the degree of ALP activation
[1]; 100 μM and 300 μM, 7-day differentiation
  expression levels of alkaline phosphatase and type I collagen: increased in a peptide-concentration-dependent manner
[1]; 300 μM, maintenance medium
  mRNA expression levels of alkaline phosphatase and type I collagen: caused increases in the mRNA expression levels

Source: patent publication US20100260680A1, “NOVEL BONE MASS INCREASING AGENT” (ORIENTAL YEAST CO., LTD., priority 2007, published 2010)
